# Measurements as given in PMC6409085, “Three odorant-binding proteins are involved in the behavioral response of Sogatella furcifera to rice plant volatiles” (PeerJ, 2019).
# Where “and” joins values, the source holds several entries; their conditions need not be identical. Equal entries are not always repeated.
# How the values were obtained:
# SfurOBP1 = SfurOBP1 (Sogatella furcifera, UniProt V5T8N5); test: biochemical; assay type: binding; conditions: for Fluorescence competitive binding assay, fluorescence intensity: OBP1, three replicate columns
# Sequence of SfurOBP1 (V5T8N5 entry or part of it): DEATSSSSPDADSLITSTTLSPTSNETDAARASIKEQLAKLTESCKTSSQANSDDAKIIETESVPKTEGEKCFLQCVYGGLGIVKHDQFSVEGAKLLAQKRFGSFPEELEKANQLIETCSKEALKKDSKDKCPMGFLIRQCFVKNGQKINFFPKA
# Method in brief: (§1)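 Fluorescence competitive binding with 1-NPN as reporter: 2.0 µM protein and 2.0 µM 1-NPN in 50 mM Tris-HCl pH 7.4, odorant added at 2–20 µM final. Excitation 337 nm, emission 390–490 nm read 2 min after addition, triplicates. Ki = IC50/(1 + [1-NPN]/K1-NPN).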
# SfurOBP11 = SfurOBP11 (Sogatella furcifera, UniProt V5T6E3); test: biochemical; assay type: binding
# Sequence of SfurOBP11 (V5T6E3 entry or part of it): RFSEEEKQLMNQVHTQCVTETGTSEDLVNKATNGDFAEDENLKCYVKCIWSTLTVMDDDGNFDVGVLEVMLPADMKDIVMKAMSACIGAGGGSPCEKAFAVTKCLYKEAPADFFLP
# Method in brief: as §1
# SfurOBP2 = SfurOBP2 (Sogatella furcifera, UniProt V5T759); test: biochemical; assay type: binding
# Sequence of SfurOBP2 (V5T759 entry or part of it): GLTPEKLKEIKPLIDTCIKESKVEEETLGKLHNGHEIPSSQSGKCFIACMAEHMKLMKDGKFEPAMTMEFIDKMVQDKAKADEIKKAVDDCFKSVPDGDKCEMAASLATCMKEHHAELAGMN
# Method in brief: as §1
# SfurOBP3 = SfurOBP3 (Sogatella furcifera, UniProt V5T818); test: biochemical; assay type: binding; conditions: for Fluorescence competitive binding assay, fluorescence intensity: OBP3, three replicate columns
# Sequence of SfurOBP3 (V5T818 entry or part of it): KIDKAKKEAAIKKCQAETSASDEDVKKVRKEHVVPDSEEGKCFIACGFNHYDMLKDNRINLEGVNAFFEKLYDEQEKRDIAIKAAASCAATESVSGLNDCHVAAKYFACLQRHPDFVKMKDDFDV
# Method in brief: as §1
# S. furcifera adults = test: Y-tube olfactometer behavioral trials; assay type: in vivo, Sogatella furcifera; conditions: odorant 50 µL/L vs hexane; adults
# Method in brief: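 Single S. furcifera adults (2 days post-emergence, starved 0.5 h) chose between odorant (100 µL of 50 µL/L on filter paper) and hexane control in a glass Y-tube, charcoal-filtered humidified air 300 mL/min per arm, 25 ± 1 °C, 50% RH. Choice scored if insect passed half an arm and stayed >1 min within 10 min; 45 insects per compound, chi-squared test.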
structure (smiles),measurement,setting,value
CCC/C=C/CO [(E)-2-hexenol],IC50,SfurOBP1,> 20 µM
same,"Fluorescence competitive binding assay, fluorescence intensity",SfurOBP1; ligand concentration 2 (μM),5821 and 6205 and 6589
same,"Fluorescence competitive binding assay, fluorescence intensity",SfurOBP1; ligand concentration 4 (μM),7444 and 7124 and 7270
same,"Fluorescence competitive binding assay, fluorescence intensity",SfurOBP1; ligand concentration 6 (μM),8585 and 7896 and 9273
same,"Fluorescence competitive binding assay, fluorescence intensity",SfurOBP1; ligand concentration 8 (μM),8091 and 7978 and 7865
same,"Fluorescence competitive binding assay, fluorescence intensity",SfurOBP1; ligand concentration 10 (μM),8122 and 7477 and 6720
same,"Fluorescence competitive binding assay, fluorescence intensity",SfurOBP1; ligand concentration 12 (μM),5971 and 6877 and 6423
same,"Fluorescence competitive binding assay, fluorescence intensity",SfurOBP1; ligand concentration 14 (μM),6112 and 6019 and 6107
same,"Fluorescence competitive binding assay, fluorescence intensity",SfurOBP1; ligand concentration 16 (μM),6252 and 5805 and 6056
same,"Fluorescence competitive binding assay, fluorescence intensity",SfurOBP1; ligand concentration 18 (μM),8503 and 8229 and 10760
same,"Fluorescence competitive binding assay, fluorescence intensity",SfurOBP1; ligand concentration 20 (μM),7495 and 8100 and 7787
same,IC50,SfurOBP11,> 20 µM
same,"Fluorescence intensity, fluorescence competitive binding assay, OBP11","SfurOBP11; ligand concentration 2, replicate 1",34795
same,"Fluorescence intensity, fluorescence competitive binding assay, OBP11","SfurOBP11; ligand concentration 2, replicate 2",32362
same,"Fluorescence intensity, fluorescence competitive binding assay, OBP11","SfurOBP11; ligand concentration 2, replicate 3",33570
same,"Fluorescence intensity, fluorescence competitive binding assay, OBP11","SfurOBP11; ligand concentration 4, replicate 1",31605
same,"Fluorescence intensity, fluorescence competitive binding assay, OBP11","SfurOBP11; ligand concentration 4, replicate 2",31826
same,"Fluorescence intensity, fluorescence competitive binding assay, OBP11","SfurOBP11; ligand concentration 4, replicate 3",31807
same,"Fluorescence intensity, fluorescence competitive binding assay, OBP11","SfurOBP11; ligand concentration 6, replicate 1",29600
same,"Fluorescence intensity, fluorescence competitive binding assay, OBP11","SfurOBP11; ligand concentration 6, replicate 2",28910
same,"Fluorescence intensity, fluorescence competitive binding assay, OBP11","SfurOBP11; ligand concentration 6, replicate 3",29255
same,"Fluorescence intensity, fluorescence competitive binding assay, OBP11","SfurOBP11; ligand concentration 8, replicate 1",27040
same,"Fluorescence intensity, fluorescence competitive binding assay, OBP11","SfurOBP11; ligand concentration 8, replicate 2",29546
same,"Fluorescence intensity, fluorescence competitive binding assay, OBP11","SfurOBP11; ligand concentration 8, replicate 3",25961
same,"Fluorescence intensity, fluorescence competitive binding assay, OBP11","SfurOBP11; ligand concentration 10, replicate 1",25687
same,"Fluorescence intensity, fluorescence competitive binding assay, OBP11","SfurOBP11; ligand concentration 10, replicate 2",25600
same,"Fluorescence intensity, fluorescence competitive binding assay, OBP11","SfurOBP11; ligand concentration 10, replicate 3",25774
same,"Fluorescence intensity, fluorescence competitive binding assay, OBP11","SfurOBP11; ligand concentration 12, replicate 1",25617
same,"Fluorescence intensity, fluorescence competitive binding assay, OBP11","SfurOBP11; ligand concentration 12, replicate 2",23726
same,"Fluorescence intensity, fluorescence competitive binding assay, OBP11","SfurOBP11; ligand concentration 12, replicate 3",24242
same,"Fluorescence intensity, fluorescence competitive binding assay, OBP11","SfurOBP11; ligand concentration 14, replicate 1",22896
same,"Fluorescence intensity, fluorescence competitive binding assay, OBP11","SfurOBP11; ligand concentration 14, replicate 2",21710
same,"Fluorescence intensity, fluorescence competitive binding assay, OBP11","SfurOBP11; ligand concentration 14, replicate 3",22816
same,"Fluorescence intensity, fluorescence competitive binding assay, OBP11","SfurOBP11; ligand concentration 16, replicate 1",19721
same,"Fluorescence intensity, fluorescence competitive binding assay, OBP11","SfurOBP11; ligand concentration 16, replicate 2",20050
same,"Fluorescence intensity, fluorescence competitive binding assay, OBP11","SfurOBP11; ligand concentration 16, replicate 3",20211
same,"Fluorescence intensity, fluorescence competitive binding assay, OBP11","SfurOBP11; ligand concentration 18, replicate 1",19470
same,"Fluorescence intensity, fluorescence competitive binding assay, OBP11","SfurOBP11; ligand concentration 18, replicate 2",19537
same,"Fluorescence intensity, fluorescence competitive binding assay, OBP11","SfurOBP11; ligand concentration 18, replicate 3",20671
same,"Fluorescence intensity, fluorescence competitive binding assay, OBP11","SfurOBP11; ligand concentration 20, replicate 1",20038
same,"Fluorescence intensity, fluorescence competitive binding assay, OBP11","SfurOBP11; ligand concentration 20, replicate 2",19843
same,"Fluorescence intensity, fluorescence competitive binding assay, OBP11","SfurOBP11; ligand concentration 20, replicate 3",19956
same,IC50,SfurOBP2,> 20 µM
same,"Fluorescence competitive binding assay, OBP2 (raw fluorescence reading)","SfurOBP2; ligand concentration 2 (unit not given), replicate column 1 of 3",18290
same,"Fluorescence competitive binding assay, OBP2 (raw fluorescence reading)","SfurOBP2; ligand concentration 2 (unit not given), replicate column 2 of 3",18447
same,"Fluorescence competitive binding assay, OBP2 (raw fluorescence reading)","SfurOBP2; ligand concentration 2 (unit not given), replicate column 3 of 3",18531
same,"Fluorescence competitive binding assay, OBP2 (raw fluorescence reading)","SfurOBP2; ligand concentration 4 (unit not given), replicate column 1 of 3",17418
same,"Fluorescence competitive binding assay, OBP2 (raw fluorescence reading)","SfurOBP2; ligand concentration 4 (unit not given), replicate column 2 of 3",17308
same,"Fluorescence competitive binding assay, OBP2 (raw fluorescence reading)","SfurOBP2; ligand concentration 4 (unit not given), replicate column 3 of 3",17228
same,"Fluorescence competitive binding assay, OBP2 (raw fluorescence reading)","SfurOBP2; ligand concentration 6 (unit not given), replicate column 1 of 3",16794
same,"Fluorescence competitive binding assay, OBP2 (raw fluorescence reading)","SfurOBP2; ligand concentration 6 (unit not given), replicate column 2 of 3",16314
same,"Fluorescence competitive binding assay, OBP2 (raw fluorescence reading)","SfurOBP2; ligand concentration 6 (unit not given), replicate column 3 of 3",16504
same,"Fluorescence competitive binding assay, OBP2 (raw fluorescence reading)","SfurOBP2; ligand concentration 8 (unit not given), replicate column 1 of 3",15464
same,"Fluorescence competitive binding assay, OBP2 (raw fluorescence reading)","SfurOBP2; ligand concentration 8 (unit not given), replicate column 2 of 3",15780
same,"Fluorescence competitive binding assay, OBP2 (raw fluorescence reading)","SfurOBP2; ligand concentration 8 (unit not given), replicate column 3 of 3",16125
same,"Fluorescence competitive binding assay, OBP2 (raw fluorescence reading)","SfurOBP2; ligand concentration 10 (unit not given), replicate column 1 of 3",15191
same,"Fluorescence competitive binding assay, OBP2 (raw fluorescence reading)","SfurOBP2; ligand concentration 10 (unit not given), replicate column 2 of 3",14875
same,"Fluorescence competitive binding assay, OBP2 (raw fluorescence reading)","SfurOBP2; ligand concentration 10 (unit not given), replicate column 3 of 3",15159
same,"Fluorescence competitive binding assay, OBP2 (raw fluorescence reading)","SfurOBP2; ligand concentration 12 (unit not given), replicate column 1 of 3",14300
same,"Fluorescence competitive binding assay, OBP2 (raw fluorescence reading)","SfurOBP2; ligand concentration 12 (unit not given), replicate column 2 of 3",14543
same,"Fluorescence competitive binding assay, OBP2 (raw fluorescence reading)","SfurOBP2; ligand concentration 12 (unit not given), replicate column 3 of 3",14192
same,"Fluorescence competitive binding assay, OBP2 (raw fluorescence reading)","SfurOBP2; ligand concentration 14 (unit not given), replicate column 1 of 3",13523
same,"Fluorescence competitive binding assay, OBP2 (raw fluorescence reading)","SfurOBP2; ligand concentration 14 (unit not given), replicate column 2 of 3",13764
same,"Fluorescence competitive binding assay, OBP2 (raw fluorescence reading)","SfurOBP2; ligand concentration 14 (unit not given), replicate column 3 of 3",13447
same,"Fluorescence competitive binding assay, OBP2 (raw fluorescence reading)","SfurOBP2; ligand concentration 16 (unit not given), replicate column 1 of 3",12677
same,"Fluorescence competitive binding assay, OBP2 (raw fluorescence reading)","SfurOBP2; ligand concentration 16 (unit not given), replicate column 2 of 3",12355
same,"Fluorescence competitive binding assay, OBP2 (raw fluorescence reading)","SfurOBP2; ligand concentration 16 (unit not given), replicate column 3 of 3",12095
same,"Fluorescence competitive binding assay, OBP2 (raw fluorescence reading)","SfurOBP2; ligand concentration 18 (unit not given), replicate column 1 of 3",11796
same,"Fluorescence competitive binding assay, OBP2 (raw fluorescence reading)","SfurOBP2; ligand concentration 18 (unit not given), replicate column 2 of 3",11817
same,"Fluorescence competitive binding assay, OBP2 (raw fluorescence reading)","SfurOBP2; ligand concentration 18 (unit not given), replicate column 3 of 3",11503
same,"Fluorescence competitive binding assay, OBP2 (raw fluorescence reading)","SfurOBP2; ligand concentration 20 (unit not given), replicate column 1 of 3",11621
same,"Fluorescence competitive binding assay, OBP2 (raw fluorescence reading)","SfurOBP2; ligand concentration 20 (unit not given), replicate column 2 of 3",11220
same,"Fluorescence competitive binding assay, OBP2 (raw fluorescence reading)","SfurOBP2; ligand concentration 20 (unit not given), replicate column 3 of 3",11057
same,IC50,SfurOBP3,> 20 µM
same,"Fluorescence competitive binding assay, fluorescence intensity",SfurOBP3; ligand concentration 2,55419 and 52631 and 56435
same,"Fluorescence competitive binding assay, fluorescence intensity",SfurOBP3; ligand concentration 4,52848 and 53720 and 53070
same,"Fluorescence competitive binding assay, fluorescence intensity",SfurOBP3; ligand concentration 6,56485 and 54348 and 51437
same,"Fluorescence competitive binding assay, fluorescence intensity",SfurOBP3; ligand concentration 8,53820 and 44741 and 53024
same,"Fluorescence competitive binding assay, fluorescence intensity",SfurOBP3; ligand concentration 10,50999 and 49511 and 49866
same,"Fluorescence competitive binding assay, fluorescence intensity",SfurOBP3; ligand concentration 12,51314 and 45497 and 46649
same,"Fluorescence competitive binding assay, fluorescence intensity",SfurOBP3; ligand concentration 14,46992 and 46379 and 46282
same,"Fluorescence competitive binding assay, fluorescence intensity",SfurOBP3; ligand concentration 16,39521 and 39562 and 39433
same,"Fluorescence competitive binding assay, fluorescence intensity",SfurOBP3; ligand concentration 18,45227 and 50180 and 45511
same,"Fluorescence competitive binding assay, fluorescence intensity",SfurOBP3; ligand concentration 20,47692 and 45313 and 40014
same,number of insects choosing hexane arm,S. furcifera adults,9
same,number of insects choosing volatilies arm,S. furcifera adults,8
same,number of insects failed (no choice),S. furcifera adults,24
